Test results published in patent publication US20230233569A1 (Revolution Medicines, Inc., priority 2020, published 2023).
Read-outs that look alike come from different tables or passages of the source.

Columns and labels:
Capan-1 (K-Ras G12V) = assay: CellTiter-Glo cell viability assay, 5-day treatment; format: cell-based; settings: Homo sapiens, CAPAN-1, 120 h
In short: (§1)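 Seeded cells received test compound by direct dispensing. On day 5 the plates sat at room temperature approximately 30 minutes, then luminescence was measured. Data were normalized to DMSO and curve-fitted with four parameters.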

NCI-H358 (K-Ras G12C) = assay: as above; format: cell-based; settings: Homo sapiens, NCI-H358, 120 h, 5-day treatment; read-out: H358 Cell Viability assay data (K-Ras G12C, IC50)
In short: as §1

KRAS G12C = KRAS G12C (Homo sapiens, UniProt P01116+P62937, G12C); assay: Disruption of BRAF RBD interaction with Ras (FRET / MOA assay, with Cyclophilin A); format: biochemical
In short: (§2)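 TR-FRET: nucleotide-loaded K-Ras mutant or WT with Cyclophilin A and BRAF RBD, compound 10-point 3-fold from 30 μM final, 3 h at 25° C, then anti-His Eu (10 nM) and anti-GST APC (50 nM) for 1.5 h. Decreased FRET ratio versus DMSO gives IC50.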

KRAS G12D = KRAS G12D (Homo sapiens, UniProt P01116+P62937, G12D); assay: as above; format: biochemical
In short: as §2

KRAS G12S = KRAS G12S (Homo sapiens, UniProt P01116+P62937, G12S); assay: as above; format: biochemical
In short: as §2

KRAS G12V = KRAS G12V (Homo sapiens, UniProt P01116+P62937, G12V); assay: as above; format: biochemical
In short: as §2

KRAS G13C = KRAS G13C (Homo sapiens, UniProt P01116+P62937, G13C); assay: as above; format: biochemical
In short: as §2

KRAS G13D = KRAS G13D (Homo sapiens, UniProt P01116+P62937, G13D); assay: as above; format: biochemical
In short: as §2

KRAS WT = KRAS WT (Homo sapiens, UniProt P01116+P62937); assay: as above; format: biochemical
In short: as §2

NRAS G12C = NRAS G12C (Homo sapiens, UniProt P01111+P62937, G12C); assay: as above; format: biochemical
KRAS Q61H = KRAS Q61H (Homo sapiens, UniProt P01116+P62937, Q61H); assay: as above; format: biochemical
In short: (§3)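 IC50 reflects compound-driven Ras:Cyclophilin A ternary complex displacing BRAF RBD, read as lowered TR-FRET ratio relative to DMSO after Eu anti-His (10 nM) and APC anti-GST (50 nM) detection for 1.5 h. Prior incubation 3 h, 25° C, with 12.5 nM GMPPNP-loaded Ras, 50 nM BRAF RBD, 25 μM Cyclophilin A; top compound 30 μM.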

NRAS Q61K = NRAS Q61K (Homo sapiens, UniProt P01111+P62937, Q61K); assay: as above; format: biochemical
In short: as §3

NRAS Q61R = NRAS Q61R (Homo sapiens, UniProt P01111+P62937, Q61R); assay: as above; format: biochemical
In short: as §3

NRAS WT = NRAS WT (Homo sapiens, UniProt P01111+P62937); assay: as above; format: biochemical
In short: as §3

[1] = 5-day treatment, read-out: Capan-1 Cell Viability assay data (K-Ras G12V, IC50)
[2] = read-out: KRAS G12C FRET data, IC50
[3] = read-out: KRAS G12D FRET data, IC50
[4] = read-out: KRAS G12S FRET data, IC50
[5] = KRAS G12V, read-out: KRAS G12V FRET data IC50
[6] = read-out: KRAS G13C FRET data, IC50
[7] = KRAS G13D, read-out: KRAS G13D FRET data IC50
[8] = KRAS WT, read-out: KRAS WT FRET data IC50
[9] = NRAS G12C, read-out: NRAS G12C FRET data IC50
[10] = KRAS Q61H, read-out: KRAS Q61H FRET data IC50
[11] = NRAS Q61K, read-out: NRAS Q61K FRET data IC50
[12] = NRAS Q61R, read-out: NRAS Q61R FRET data IC50
[13] = NRAS WT, read-out: NRAS WT FRET data IC50
[14] = read-out: Capan-1 Cell Viability assay data (K-Ras G12V, IC50, uM)

Sequence of KRAS Q61H (P01116 1-169 isoform P01116-2 Q61H limits assumed): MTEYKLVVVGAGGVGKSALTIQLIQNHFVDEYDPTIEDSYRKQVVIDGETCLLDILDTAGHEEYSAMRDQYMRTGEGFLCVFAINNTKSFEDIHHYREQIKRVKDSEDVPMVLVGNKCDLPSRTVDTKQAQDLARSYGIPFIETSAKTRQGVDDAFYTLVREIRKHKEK
Sequence of KRAS Q61H (P62937 whole entry): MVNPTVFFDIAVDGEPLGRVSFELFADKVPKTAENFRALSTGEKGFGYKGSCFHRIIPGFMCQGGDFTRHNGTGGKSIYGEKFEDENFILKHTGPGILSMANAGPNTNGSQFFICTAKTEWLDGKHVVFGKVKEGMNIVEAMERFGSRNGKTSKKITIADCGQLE
Sequence of KRAS G12V (P01116 1-169 isoform P01116-2 G12V limits assumed): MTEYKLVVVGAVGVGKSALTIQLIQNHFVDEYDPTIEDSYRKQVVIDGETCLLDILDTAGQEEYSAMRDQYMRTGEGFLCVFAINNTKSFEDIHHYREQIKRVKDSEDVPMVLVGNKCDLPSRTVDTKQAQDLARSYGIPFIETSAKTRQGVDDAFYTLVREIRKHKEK
Sequence of KRAS G12V (P62937 whole entry): as the sequence (P62937 whole entry) above
Sequence of KRAS G13C (P01116 1-169 isoform P01116-2 G13C): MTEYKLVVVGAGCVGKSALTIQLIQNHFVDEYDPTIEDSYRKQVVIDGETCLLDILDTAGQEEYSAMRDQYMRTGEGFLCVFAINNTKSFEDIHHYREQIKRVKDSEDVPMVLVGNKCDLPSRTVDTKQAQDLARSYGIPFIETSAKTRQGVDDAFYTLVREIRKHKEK
Sequence of KRAS G13C (P62937 whole entry): as the sequence (P62937 whole entry) above
Sequence of NRAS Q61R (P01111 whole entry Q61R): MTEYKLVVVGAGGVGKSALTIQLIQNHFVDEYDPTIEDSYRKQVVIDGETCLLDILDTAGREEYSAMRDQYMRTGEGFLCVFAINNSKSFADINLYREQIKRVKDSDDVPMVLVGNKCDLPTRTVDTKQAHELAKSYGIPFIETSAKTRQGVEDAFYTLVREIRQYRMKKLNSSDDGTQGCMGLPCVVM
Sequence of NRAS Q61R (P62937 whole entry): as the sequence (P62937 whole entry) above
Sequence of NRAS G12C (P01111 whole entry G12C): as the sequence (P01111 whole entry Q61R) above, with G12C, R61Q counted along it
Sequence of NRAS G12C (P62937 whole entry): as the sequence (P62937 whole entry) above
Sequence of KRAS G12C (P01116 1-169 isoform P01116-2 G12C): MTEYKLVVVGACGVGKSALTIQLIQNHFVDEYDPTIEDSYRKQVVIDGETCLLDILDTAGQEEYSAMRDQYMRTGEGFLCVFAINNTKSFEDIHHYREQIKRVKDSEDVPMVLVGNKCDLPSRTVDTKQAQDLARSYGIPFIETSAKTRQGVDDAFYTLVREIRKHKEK
Sequence of KRAS G12C (P62937 whole entry): as the sequence (P62937 whole entry) above
Sequence of KRAS G12S (P01116 1-169 isoform P01116-2 G12S limits assumed): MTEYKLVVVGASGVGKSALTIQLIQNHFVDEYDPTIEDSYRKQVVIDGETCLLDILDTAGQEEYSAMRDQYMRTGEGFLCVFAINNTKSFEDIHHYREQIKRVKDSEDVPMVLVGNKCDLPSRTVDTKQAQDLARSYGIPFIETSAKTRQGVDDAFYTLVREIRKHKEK
Sequence of KRAS G12S (P62937 whole entry): as the sequence (P62937 whole entry) above
Sequence of NRAS WT (P01111 whole entry): as the sequence (P01111 whole entry Q61R) above, with R61Q counted along it
Sequence of NRAS WT (P62937 whole entry): as the sequence (P62937 whole entry) above
Sequence of NRAS Q61K (P01111 whole entry Q61K): as the sequence (P01111 whole entry Q61R) above, with R61K counted along it
Sequence of NRAS Q61K (P62937 whole entry): as the sequence (P62937 whole entry) above
Sequence of KRAS WT (P01116 1-169 isoform P01116-2 limits assumed): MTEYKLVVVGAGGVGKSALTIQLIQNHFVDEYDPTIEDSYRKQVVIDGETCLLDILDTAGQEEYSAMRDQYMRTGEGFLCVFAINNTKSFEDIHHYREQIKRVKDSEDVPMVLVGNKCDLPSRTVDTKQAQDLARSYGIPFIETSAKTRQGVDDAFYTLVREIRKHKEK
Sequence of KRAS WT (P62937 whole entry): as the sequence (P62937 whole entry) above
Sequence of KRAS G12D (P01116 1-169 isoform P01116-2 G12D limits assumed): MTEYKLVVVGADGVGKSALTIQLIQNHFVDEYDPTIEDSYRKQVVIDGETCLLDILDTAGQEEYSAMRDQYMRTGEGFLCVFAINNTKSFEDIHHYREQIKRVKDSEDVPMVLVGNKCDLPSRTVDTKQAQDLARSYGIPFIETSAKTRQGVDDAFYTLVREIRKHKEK
Sequence of KRAS G12D (P62937 whole entry): as the sequence (P62937 whole entry) above
Sequence of KRAS G13D (P01116 1-169 isoform P01116-2 G13D limits assumed): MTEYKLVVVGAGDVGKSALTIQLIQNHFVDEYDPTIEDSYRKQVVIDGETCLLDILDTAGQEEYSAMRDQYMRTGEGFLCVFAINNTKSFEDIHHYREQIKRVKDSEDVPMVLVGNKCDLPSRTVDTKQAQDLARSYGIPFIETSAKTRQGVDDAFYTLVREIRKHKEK
Sequence of KRAS G13D (P62937 whole entry): as the sequence (P62937 whole entry) above

SMILES	IC50 (NCI-H358 (K-Ras G12C)) [nM]	IC50 (KRAS G12C; [2]) [nM]	IC50 (KRAS G12D; [3]) [nM]	IC50 (KRAS G12S; [4]) [nM]	IC50 (KRAS G12V; [5]) [nM]	IC50 (KRAS G13C; [6]) [nM]	IC50 (KRAS G13D; [7]) [nM]	IC50 (KRAS WT; [8]) [nM]	IC50 (NRAS G12C; [9]) [nM]	IC50 (KRAS Q61H; [10]) [nM]	IC50 (NRAS Q61K; [11]) [nM]	IC50 (NRAS Q61R; [12]) [nM]	IC50 (NRAS WT; [13]) [nM]	IC50 (Capan-1 (K-Ras G12V); [1]) [µM]	further results
CCn1c(-c2cccnc2[C@H](C)OC)c2c3cc(ccc31)-c1csc(n1)C[C@H](NC(=O)[C@H](C(C)C)N(C)C(=O)N1CC[C@]13CCCN(C)C3)C(=O)N1CCC[C@H](N1)C(=O)OCC(C)(C)C2 [Example A442]	100 to 1000	1000 to 10000	1000 to 10000	1000 to 10000	1000 to 10000	1000 to 10000	100 to 1000	1000 to 10000	1000 to 10000	100 to 1000	1000 to 10000	1000 to 10000	1000 to 10000	1 to 10	–
CCn1c(-c2cccnc2[C@H](C)OC)c2c3cc(ccc31)-c1csc(n1)C[C@H](NC(=O)[C@H](C(C)C)N(C)C(=O)N(C)C1(COC)COC1)C(=O)N1CCC[C@H](N1)C(=O)OCC(C)(C)C2 [Example A455]	100 to 1000	100 to 1000	1000 to 10000	100 to 1000	1000 to 10000	1000 to 10000	1000 to 10000	100 to 1000	100 to 1000	100 to 1000	100 to 1000	100 to 1000	100 to 1000	0.1 to 1	–
CCn1c(-c2cccnc2[C@H](C)OC)c2c3cc(ccc31)-c1csc(n1)C[C@H](NC(=O)[C@H](C(C)C)N(C)C(=O)[C@@H]1CCN(C)[C@@H]1c1ccccc1)C(=O)N1CCC[C@H](N1)C(=O)OCC(C)(C)C2 [Example A464]	1000 to 10000	1000 to 10000	1000 to 10000	1000 to 10000	1000 to 10000	1000 to 10000	1000 to 10000	1000 to 10000	1000 to 10000	100 to 1000	1000 to 10000	1000 to 10000	1000 to 10000	–	IC50 (Capan-1 (K-Ras G12V); [14]): 1 to 10 µM
CCn1c(-c2cc(C3CCN(C)CC3)cnc2[C@H](C)OC)c2c3cc(ccc31)-c1csc(n1)C[C@H](NC(=O)[C@H](C(C)C)N(C)C(=O)N1CC(C3COC3)C1)C(=O)N1CCC[C@H](N1)C(=O)OCC(C)(C)C2 [Example A465]	< 10	10 to 100	100 to 1000	10 to 100	10 to 100	10 to 100	100 to 1000	10 to 100	10 to 100	10 to 100	10 to 100	10 to 100	10 to 100	–	IC50 (Capan-1 (K-Ras G12V); [14]): < 0.01 µM
CCn1c(-c2cccnc2[C@H](C)OC)c2c3cc(ccc31)-c1csc(n1)C[C@H](NC(=O)[C@H](C(C)C)N(C)C(=O)N1CC3(C1)CS(=O)(=O)CCN3C)C(=O)N1CCC[C@H](N1)C(=O)OCC(C)(C)C2 [Example A482]	100 to 1000	1000 to 10000	> 10000	1000 to 10000	1000 to 10000	1000 to 10000	1000 to 10000	1000 to 10000	100 to 1000	100 to 1000	100 to 1000	1000 to 10000	1000 to 10000	0.1 to 1	–
CCn1c(-c2cccnc2[C@H](C)OC)c2c3cc(ccc31)-c1csc(n1)C[C@H](NC(=O)[C@H](C(C)C)N(C)C(=O)N1CCC[C@@H](N(C)C)CC1)C(=O)N1CCC[C@H](N1)C(=O)OCC(C)(C)C2 [Example A494]	10 to 100	–	–	–	–	–	–	–	–	–	–	–	–	0.01 to 0.1	IC50 (KRAS G12C; KRAS G12C FRET data, IC50): 10 to 100 nM; IC50 (KRAS G12D; KRAS G12D FRET data, IC50): 10 to 100 nM; IC50 (KRAS G12S; KRAS G12S FRET data, IC50): 10 to 100 nM; IC50 (KRAS G12V; KRAS G12V FRET data IC50, KRAS G12V): 100 to 1000 nM; IC50 (KRAS G13C; KRAS G13C FRET data, IC50): 100 to 1000 nM; IC50 (KRAS G13D; KRAS G13D FRET data IC50, KRAS G13D): 100 to 1000 nM; IC50 (KRAS WT; KRAS WT FRET data IC50, KRAS WT): 10 to 100 nM; IC50 (NRAS G12C; NRAS G12C FRET data IC50, NRAS G12C): 10 to 100 nM; IC50 (KRAS Q61H; KRAS Q61H FRET data IC50, KRAS Q61H): 10 to 100 nM; IC50 (NRAS Q61K; NRAS Q61K FRET data IC50, NRAS Q61K): 10 to 100 nM; IC50 (NRAS Q61R; NRAS Q61R FRET data IC50, NRAS Q61R): 10 to 100 nM; IC50 (NRAS WT; NRAS WT FRET data IC50, NRAS WT): 10 to 100 nM
CCn1c(-c2cccnc2[C@H](C)OC)c2c3cc(ccc31)-c1csc(n1)C[C@H](NC(=O)[C@H](C(C)C)N(C)C(=O)N1C3CC1CS(=O)(=O)C3)C(=O)N1CCC[C@H](N1)C(=O)OCC(C)(C)C2 [Example A496]	100 to 1000	100 to 1000	1000 to 10000	1000 to 10000	100 to 1000	1000 to 10000	1000 to 10000	100 to 1000	100 to 1000	100 to 1000	100 to 1000	1000 to 10000	100 to 1000	0.1 to 1	–

Now from value to compound, other results behind:

IC50 (NCI-H358 (K-Ras G12C)) [nM]	IC50 (KRAS G12C; [2]) [nM]	IC50 (KRAS G12D; [3]) [nM]	IC50 (KRAS G12S; [4]) [nM]	IC50 (KRAS G12V; [5]) [nM]	IC50 (KRAS G13C; [6]) [nM]	IC50 (KRAS G13D; [7]) [nM]	IC50 (KRAS WT; [8]) [nM]	IC50 (NRAS G12C; [9]) [nM]	IC50 (KRAS Q61H; [10]) [nM]	IC50 (NRAS Q61K; [11]) [nM]	IC50 (NRAS Q61R; [12]) [nM]	IC50 (NRAS WT; [13]) [nM]	SMILES	IC50 (Capan-1 (K-Ras G12V); [1]) [µM]	further results
10 to 100	100 to 1000	1000 to 10000	100 to 1000	100 to 1000	100 to 1000	100 to 1000	100 to 1000	100 to 1000	100 to 1000	100 to 1000	100 to 1000	100 to 1000	CCn1c(-c2cccnc2[C@H](C)OC)c2c3cc(ccc31)-c1csc(n1)C[C@H](NC(=O)[C@H](C(C)C)N(C)C(=O)N1CCC3(CC1)CN(C)CCO3)C(=O)N1CCC[C@H](N1)C(=O)OCC(C)(C)C2 [Example A433]	0.01 to 0.1	–
10 to 100	10 to 100	100 to 1000	10 to 100	100 to 1000	10 to 100	10 to 100	10 to 100	10 to 100	10 to 100	10 to 100	10 to 100	10 to 100	CCn1c(-c2cccnc2[C@H](C)OC)c2c3cc(ccc31)-c1csc(n1)C[C@H](NC(=O)[C@H](C(C)C)N(C)C(=O)N1CCN(C(=O)CCN(C)C)CC1)C(=O)N1CCC[C@H](N1)C(=O)OCC(C)(C)C2 [Example A459]	0.1 to 1	–
10 to 100	100 to 1000	1000 to 10000	1000 to 10000	1000 to 10000	1000 to 10000	1000 to 10000	1000 to 10000	100 to 1000	100 to 1000	100 to 1000	1000 to 10000	100 to 1000	CCn1c(-c2cccnc2[C@H](C)OC)c2c3cc(ccc31)-c1csc(n1)C[C@H](NC(=O)[C@H](C(C)C)N(C)C(=O)N1C[C@@H]3CN(C)CC[C@@H]31)C(=O)N1CCC[C@H](N1)C(=O)OCC(C)(C)C2 [Example A481]	0.01 to 0.1	–
10 to 100	100 to 1000	100 to 1000	100 to 1000	100 to 1000	100 to 1000	100 to 1000	100 to 1000	100 to 1000	10 to 100	100 to 1000	100 to 1000	100 to 1000	CCn1c(-c2cccnc2[C@H](C)OC)c2c3cc(ccc31)-c1csc(n1)C[C@H](NC(=O)[C@H](C(C)C)N(C)C(=O)N1CCCC[C@@H](N(C)C)C1)C(=O)N1CCC[C@H](N1)C(=O)OCC(C)(C)C2 [Example A492]	0.1 to 1	–
